In patent publication EP1113726B1, “USE OF NEOHESPERIDIN DIHYDROCHALCONE FOR THE MANUFACTURE OF A MEDICAMENT FOR PREVENTING OR TREATING ELEVATED BLOOD LIPID LEVEL-RELATED DISEASES” (Korea Research Institute of Bioscience and Biotechnology, priority 1998, dated 2000):

Experiments:
[1] = tested on: New Zealand White rabbits; assay: Chemical analysis of blood of cholesterol-fed rabbits; format: in vivo
Procedure: (§1) 30 three-month-old New Zealand White rabbits(Yeonam Horticulture and Animal Husbandry College, Korea), each weighing about 2.5 to 2.6 kg, were raised under a condition of temperature 20±2°C, relative humidity 55±5 %, and photoperiod 12L/12D. The rabbits were divided into 3 groups and 3 groups of rabbits were fed with 3 different diets, i.e., RC4 diet(Oriental Yeast Co., Japan) containing 1 % cholesterol(Control group); 1 % cholesterol plus 1 mg/kg Lovastatin®(Merck, U.S.A.)(Lovastatin group); and 1 % cholesterol plus 0.05 % neohesperidin dihydrochalcone(Neohesperidin dihydrochalcone group), respectively. RC4 diet comprises 7.6 % moisture, 22.8 % crude protein, 2.8 % crude fat, 8.8 % crude ash, 14.4 % crude cellulose and 43.6 % soluble nitrogen-free substances. Neohesperidin dihydrochalcone was purchased from Sigma Chemical Co.(St. Louis, MO).
(§2) The rabbits were fed for 6 weeks while being allowed free access to the diets and water.
After six weeks, the rabbits were anesthetized with an intramuscular injection of ketamine (50 mg/kg) in the femoral region and sacrificed.

Human = assay: Effect of administration to a human on plasma lipid metabolism; format: in vivo; settings: two men in their mid-fifties, daily oral dose of 10mg/kg, capsule, 60 days, before versus after
Procedure: Two men in their mid-fifties were administered with a daily oral dose of 10mg/kg of neohesperidin dihydrochalcone in the form of a capsule for 60 days. The plasma cholesterol and neutral lipid(triglyceride) contents were determined before and after the administration.

ACAT = ACAT assay on liver microsomes of the diet-fed rats; format: biochemical; settings: ex vivo: liver microsomes of rats fed 1 % cholesterol plus 0.05 % neohesperidin dihydrochalcone for six weeks, versus Control group
Procedure: To determine the effect of feeding neohesperidin dihydrochalcone to rats on the activity of ACAT, microsomes were separated from liver tissues to be used as an enzyme source.
1 g each of the livers taken from each group of rats of Example 2 was homogenized in 5 ml of homogenization medium(0.1 M KH2PO4, pH 7.4, 0.1 mM EDTA and 10 mM β-mercaptoethanol). The homogenate was centrifuged at 3,000xg for 15 min. at 4°C and the supernatant thus obtained was centrifuged at 15,000xg for 15 min. at 4°C to obtain a supernatant. The supernatant was put into an ultracentrifuge tube(Beckman) and centrifuged at 100,000xg for 1 hour at 4°C to obtain microsomal pellets, which were then suspended in 3 ml of the homogenization medium and centrifuged at 100,000xg for 1 hour at 4°C. The pellets thus obtained were suspended in 1 ml of the homogenization medium. The protein concentration of the resulting suspension was determined by Lowry's method and then adjusted to 4 to 8 mg/ml. […]
200 µl of the resulting supernatant was put in a scintillation bottle and 4 ml of scintillation fluid(Lumac) was added thereto. The mixture was assayed for radioactivity with 1450 Microbeta liquid scintillation counter(Wallacoy, Finland). ACAT activity was calculated as picomoles of cholesteryl oleate synthesized per min. per mg protein(pmoles/min/mg protein).

ICR female mice = settings: mouse, oral, single dose of 1,000 mg/kg
Procedure: 12 seven-week-old, specific pathogen-free ICR female mice, six female mice each weighing about 25 to 29 g and six male mice each weighing about 34 to 38 g, were kept under an environment of 22±1°C, 55±5 % relative humidity and 12L/12D photoperiod. Fodder(Cheiljedang Co., mouse and rat fodder) and water were sterilized and fed to the mice.
Neohesperidin dihydrochalcone purchased from Aldrich-Sigma Chemical Co. (St. Louis, MO, U.S.A) was dissolved in 0.5 % Tween 80 to a concentration of 100 mg/ml, and the solution was orally administered to the mice in an amount of 0.2 ml per 20 g of mouse body weight. […] Further, on the 10th day, the mice were sacrificed and the internal organs were visually examined.

[2] = tested on: New Zealand White rabbits; assay: Analysis for fatty streak in the main artery of cholesterol-fed rabbits (Oil Red O staining); format: in vivo; settings: 1 % cholesterol diet for 6 weeks plus 1 mg/kg Lovastatin or 0.05 % neohesperidin dihydrochalcone
Procedure: as §1, §2
The chest of each of the rabbits sacrificed in Step 2 was incised. The downward portion of the main artery from the site 1 cm above the aortic valve was cut out in a length of about 5 cm and the fat surrounding the main artery was removed. The main artery was incised in the middle along the longitudinal axis and pinned to a dish. The moist artery was photographed and, then, the staining of fatty streaks was carried out in accordance with the method of Esper, E., et al. (J. Lab. Clin. Med., 121, 103-110(1993)) as follows.
A part of the incised main artery was washed three times with anhydrous propylene glycol for 2 min and stained for 30 min. with a saturated solution of Oil Red O(ORO, Sigma Co.) dissolved in propylene glycol. Thereafter, the artery was washed twice with 85 % propylene glycol for 3 min. to remove remaining staining solution and, then washed with physiological saline. The artery was photographed and the photograph was traced. The area of stained region (fatty streak region) was determined with an image analyzer(LEICA, Q-600, Germany) and its proportion(%) to the total arterial area was calculated.

[3] = rabbit serum, 1 % cholesterol diet for 6 weeks plus 1 mg/kg Lovastatin or 0.05 % neohesperidin dihydrochalcone
[4] = rabbits, 1 % cholesterol plus 0.05 % neohesperidin dihydrochalcone, 6 weeks

## COc1ccc(CCC(=O)c2c(O)cc(O[C@@H]3O[C@H](CO)[C@@H](O)[C@H](O)[C@H]3O[C@@H]3O[C@@H](C)[C@H](O)[C@@H](O)[C@H]3O)cc2O)cc1O [Neohesperidin dihydrochalcone]
[1]; [3]
  GOT: 53 (±23) IU/1
  GPT: 42 (±20) IU/l
  Total-C: 1293 (±89) mg/dl
  γ-GTP: 7.8 (±5) IU/l
[1]; rabbits, 1 % cholesterol diet, 6 weeks
  reducing serum GOT and GPT levels, compared with Lovastatin®: more effective
[1]; [4]
  serum GOT level lowered, as compared to the Control group: 31%
  serum GPT level lowered, as compared to the Control group: 35%
Human
  plasma cholesterol content reduced: 20%
  plasma neutral lipid(triglyceride) content reduced: 15%
ACAT
  %Inhibition on ACAT activity: 20%
ICR female mice
  survival at day 10: All the mice were alive
ICR female mice; autopsy on the 10th day
  pathological abnormality at autopsy: did not develop any pathological abnormality
[2]; rabbit main artery
  A: Proportion(%) of fatty streak region to the total arterial area: 12 (±7) %
[2]; rabbits
  layer of macrophage-lipid complex on the arterial endothelium (Figs. 1B, 1C): no or very thin layers of macrophage-lipid complex
